# Data published in patent US20180042875A1, “COMPOUND USE IN PROMOTING ENERGY EXPENDITURE” (NESTEC S.A., priority 2015, published 2018).
# Experiments:
# sucrase = sucrase (Homo sapiens, UniProt P14410); details: enzyme involved in digestion of carbohydrates; cited from earlier work
# [1] = Body lean and fat mass composition by Echo-MRI; type: in vivo, mice; details: 25 mg/(kg*day), FIG. 4
# Protocol: Body lean and fat mass composition of 18 week-old mice fed on chow diet or high-fat diet, supplemented with either water (Veh) or Quinic Acid (25 mg/(kg*day) was measured by nuclear magnetic resonance using an Echo-Magnetic Resonance Imaging (Echo-MRI) system (Echo Medical System LCC).
# [2] = Rectal temperature in cold room (thermogenic function); type: in vivo; details: 24-week old mice on chow diet, 25 mg/(kg*day), cold room 6° C., no food, measured every hour, FIG. 10
# Protocol: Rectal temperature was measured at 8 a.m. (t=0) on 24-week old mice fed a chow diet, supplemented with either water (Veh) or Quinic Acid (25 mg/(kg*day). Then, mice were placed on a cold room (6° C.), with no access to food, and rectal temperature was measured every hour.
# [3] = Oxygen consumption and RER in CLAMS (indirect calorimetry); type: in vivo; details: 18 week-old mice on chow diet, 25 mg/(kg*day), dark phase, FIG. 6
# [4] = Treadmill endurance, increasing speed protocol; type: in vivo; details: 26 week-old high-fat fed mice, 25 mg/(kg*day), FIG. 11
# Protocol: 26 week-old mice were place on a treadmill and endurance was evaluated by using a increasing speed protocol, as described previously (Lagouge et al., 2006, PMID: 17112576). The tests were performed on low and high fat-fed mice supplemented with either water (Veh) or Quinic Acid (25 mg/(kg*day).
# α-amylase = target: T1, α-amylase (Sus scrofa, UniProt P00690); details: compared to caffeic and chlorogenic acids (Narita et al. 2009); cited from earlier work
# T1 sequence (P00690 16-511): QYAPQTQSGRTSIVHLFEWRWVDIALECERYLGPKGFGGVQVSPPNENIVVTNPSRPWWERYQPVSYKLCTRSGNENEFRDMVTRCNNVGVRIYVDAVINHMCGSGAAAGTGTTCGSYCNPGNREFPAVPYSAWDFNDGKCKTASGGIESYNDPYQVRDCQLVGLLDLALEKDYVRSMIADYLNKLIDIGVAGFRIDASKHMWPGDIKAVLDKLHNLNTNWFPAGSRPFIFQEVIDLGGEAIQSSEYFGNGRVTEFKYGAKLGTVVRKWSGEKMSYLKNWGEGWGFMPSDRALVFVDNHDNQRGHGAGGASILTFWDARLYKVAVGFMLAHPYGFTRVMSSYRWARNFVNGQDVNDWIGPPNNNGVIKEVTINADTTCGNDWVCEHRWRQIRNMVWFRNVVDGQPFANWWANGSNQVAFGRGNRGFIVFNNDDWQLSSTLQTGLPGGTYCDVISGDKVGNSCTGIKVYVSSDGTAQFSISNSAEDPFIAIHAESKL
# [5] = Food intake (tolerance / food aversion) of mice on supplemented diet; type: in vivo
# Protocol: Mice were fed a low fat diet supplemented with either water (Veh) or quinic acid at low dose (25 mg/(kg*day)) or high dose (HD, 100 mg/(kg*day). Food intake was calculated between 12 and 18 weeks of age by weighing the food placed on the tray of the cage at the start of the week and the amount remaining 5 days later.
# Mice were fed a high fat diet (60% fat) supplemented with either water (Veh) or quinic acid at low dose (25 mg/(kg*day)) or high dose (HD, 100 mg/(kg*day). Calculations for food intake were made in the same manner as for mice on chow diet.
# Powder low fat diet (LFD; Research Diets Inc.; Ref: D12450J) was reconstituted into ˜20 gram pellets using 100 ml of water/kg of food. In addition to normal low fat diet pellets, two additional groups were made by adding quinic acid (QA) to the water used for reconstitution. A first group (low dose) was created, where 0.25 g of QA were added per Kg of food (this means, 0.25 grams per 100 ml of water). In a second group (high dose), 1 g of QA was added per Kg of food (this means, 1 gram per […] of water). […]
# At 10 weeks of age, 60 male mice were randomly distributed in 6 groups (n=10 per group) and provided the different diets: LFD (Control, Low Dose and High Dose) or HFD (Control, Low Dose and High Dose). […] During this time, body weight and food intake was monitored weekly.
# [6] = Glucose excursion after intraperitoneal glucose (glucose tolerance); type: in vivo; details: 12 hr fasted 20 week-old mice on chow diet or HFD, 25 mg/(kg*day), i.p. glucose 2 g/kg, FIG. 7
# Protocol: Glucose excursion curves were determined after an intraperitoneal injection of glucose (2 g/kg) on 12 hr fasted 20 week-old mice fed a chow diet or a HFD, supplemented with either water (Veh) or Quinic Acid (25 mg/(kg*day).
# [7] = Body weight evolution on chow or high-fat diet; type: in vivo, mice; details: 25 mg/(kg*day), FIG. 3
# Protocol: Body weight evolution on mice fed on chow diet or high-fat diet, supplemented with either water (Veh) or Quinic Acid (25 mg/(kg*day) was calculated. At 10 weeks of age, 60 male mice were randomly distributed in 6 groups (n=10 per group) and provided the different diets: LFD (Control, Low Dose and High Dose) or HFD (Control, Low Dose and High Dose). Mice were maintained for 8 weeks on their corresponding diets before phenotyping took place. During this time, body weight and food intake was monitored weekly.
# [8] = Glucose excursion after intraperitoneal insulin (insulin response); type: in vivo, mice; details: 6 hr fast, 25 mg/(kg*day)
# Protocol: Glucose excursion curves were determined after an intraperitoneal injection of insulin (0.3 U/Kg) after a 6 hr fast on 22 week-old mice fed a chow diet, supplemented with either water (Veh) or Quinic Acid (25 mg/(kg*day). Glucose excursion curves were determined after an intraperitoneal injection of insulin (0.75 U/Kg) after a 6 hr fast on 22 week-old mice fed a high-fat diet, supplemented with either water (Veh) or Quinic Acid (25 mg/(kg*day).
# maltase = details: enzyme involved in digestion of carbohydrates; cited from earlier work
# lipase = details: enzyme involved in digestion of lipids; cited from earlier work
# sucrase, sequence (P14410 whole entry, species assumed): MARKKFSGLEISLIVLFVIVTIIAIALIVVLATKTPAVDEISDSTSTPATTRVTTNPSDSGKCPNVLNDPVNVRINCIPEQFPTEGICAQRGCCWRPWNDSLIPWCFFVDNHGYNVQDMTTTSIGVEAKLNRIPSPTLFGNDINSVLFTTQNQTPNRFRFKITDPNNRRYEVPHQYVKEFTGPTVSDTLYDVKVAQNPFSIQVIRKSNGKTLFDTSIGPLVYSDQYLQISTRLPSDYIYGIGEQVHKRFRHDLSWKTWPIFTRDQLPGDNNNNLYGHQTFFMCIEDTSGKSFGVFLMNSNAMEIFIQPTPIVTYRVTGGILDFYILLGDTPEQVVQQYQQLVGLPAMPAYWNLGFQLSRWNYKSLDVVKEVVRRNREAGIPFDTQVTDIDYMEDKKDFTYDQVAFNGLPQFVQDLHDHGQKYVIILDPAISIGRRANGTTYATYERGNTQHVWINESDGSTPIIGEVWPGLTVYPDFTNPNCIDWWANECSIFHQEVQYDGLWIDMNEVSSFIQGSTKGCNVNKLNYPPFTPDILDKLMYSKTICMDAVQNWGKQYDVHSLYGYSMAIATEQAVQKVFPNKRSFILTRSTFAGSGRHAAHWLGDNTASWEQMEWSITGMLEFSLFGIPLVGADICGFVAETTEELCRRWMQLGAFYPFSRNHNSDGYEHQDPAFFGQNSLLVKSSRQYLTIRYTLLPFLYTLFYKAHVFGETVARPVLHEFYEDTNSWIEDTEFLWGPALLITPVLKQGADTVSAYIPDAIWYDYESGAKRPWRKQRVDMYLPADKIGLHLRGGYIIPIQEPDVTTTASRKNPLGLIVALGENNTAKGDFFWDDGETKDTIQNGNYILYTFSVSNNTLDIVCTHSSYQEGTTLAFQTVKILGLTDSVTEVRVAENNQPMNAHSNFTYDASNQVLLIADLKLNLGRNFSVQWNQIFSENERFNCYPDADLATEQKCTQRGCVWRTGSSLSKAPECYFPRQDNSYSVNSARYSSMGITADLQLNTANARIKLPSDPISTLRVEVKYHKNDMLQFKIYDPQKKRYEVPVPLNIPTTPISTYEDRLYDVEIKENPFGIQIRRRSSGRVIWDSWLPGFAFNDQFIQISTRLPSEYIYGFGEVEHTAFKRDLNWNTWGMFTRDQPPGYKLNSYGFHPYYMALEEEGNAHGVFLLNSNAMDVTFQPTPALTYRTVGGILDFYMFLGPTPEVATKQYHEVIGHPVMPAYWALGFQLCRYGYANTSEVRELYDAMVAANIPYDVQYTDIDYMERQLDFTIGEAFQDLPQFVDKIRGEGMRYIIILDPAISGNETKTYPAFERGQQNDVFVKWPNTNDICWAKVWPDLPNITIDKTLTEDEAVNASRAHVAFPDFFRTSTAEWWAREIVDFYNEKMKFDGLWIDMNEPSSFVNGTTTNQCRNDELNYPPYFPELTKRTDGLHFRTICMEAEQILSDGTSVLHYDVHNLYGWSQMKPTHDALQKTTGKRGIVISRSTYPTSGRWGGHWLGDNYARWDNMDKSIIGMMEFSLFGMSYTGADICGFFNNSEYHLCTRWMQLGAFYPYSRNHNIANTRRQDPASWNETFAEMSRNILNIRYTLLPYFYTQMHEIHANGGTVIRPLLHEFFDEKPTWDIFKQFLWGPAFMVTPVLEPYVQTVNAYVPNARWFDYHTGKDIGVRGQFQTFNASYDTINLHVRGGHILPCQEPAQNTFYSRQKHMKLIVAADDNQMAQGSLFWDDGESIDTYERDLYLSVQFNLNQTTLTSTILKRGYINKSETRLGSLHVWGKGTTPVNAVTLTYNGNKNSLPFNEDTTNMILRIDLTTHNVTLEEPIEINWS
structure (smiles),measurement,setting,value
O=C(O)[C@]1(O)C[C@@H](O)[C@@H](O)[C@H](O)C1 [Quinic acid],effect on sucrase,sucrase,no effect
same,"fat deposition (fat mass, Echo-MRI)",[1]; 18 week-old mice on chow diet,reduced fat deposition
same,"fat deposition (fat mass, Echo-MRI)",[1]; 18 week-old mice on high-fat diet,reduced fat deposition
same,thermogenic function (rectal temperature),[2],enhanced thermogenic function
same,carbohydrate metabolism (total carbohydrate oxidation = 4.55*VO2-3.21*VCO2),[3],enhanced
same,energy consumption (oxygen consumption),[3],enhanced energy consumption
same,endurance performance (treadmill),[4],potentiates endurance performance
same,inhibition of α-amylase,α-amylase,poor inhibitor
same,food aversion (food intake),"[5]; mice on chow (low fat) diet, high dose 100 mg/(kg*day), 12-18 weeks of age, FIG. 1",caused food aversion
same,food aversion (food intake),"[5]; mice on high fat diet (60% fat), low dose 25 or high dose 100 mg/(kg*day), FIG. 2",did not cause food aversion
same,glucose tolerance,[6],moderately enhanced glucose tolerance
same,body weight gain,[7]; mice on high-fat diet,reduced weight gain
same,body weight gain,[7]; mice on low-fat (chow) diet,reduced weight gain
same,insulin response,"[8]; 22 week-old chow-fed mice, i.p. insulin 0.3 U/Kg, FIG. 8",did not alter insulin response
same,basal glycemia,"[8]; 22 week-old high-fat fed mice, FIG. 9",lowered basal glycemia
same,insulin response,"[8]; 22 week-old high-fat fed mice, i.p. insulin 0.75 U/Kg, FIG. 9",did not significantly affect insulin response
same,effect on maltase,maltase,no effect
same,effect on lipase,lipase,no effect
